A word on the EC50: it is the concentration giving half of the maximal effect.

human activated kallikrein enzyme (plasma kallikrein), sequence (P03952 391-638): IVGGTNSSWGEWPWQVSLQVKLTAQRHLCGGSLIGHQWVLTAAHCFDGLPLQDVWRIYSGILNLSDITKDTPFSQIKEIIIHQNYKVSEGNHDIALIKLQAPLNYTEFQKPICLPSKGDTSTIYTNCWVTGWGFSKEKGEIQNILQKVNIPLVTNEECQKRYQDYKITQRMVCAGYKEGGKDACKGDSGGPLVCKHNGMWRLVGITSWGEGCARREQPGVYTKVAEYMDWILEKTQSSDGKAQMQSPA
human activated kallikrein enzyme (plasma kallikrein), sequence (P03952 20-390 partner): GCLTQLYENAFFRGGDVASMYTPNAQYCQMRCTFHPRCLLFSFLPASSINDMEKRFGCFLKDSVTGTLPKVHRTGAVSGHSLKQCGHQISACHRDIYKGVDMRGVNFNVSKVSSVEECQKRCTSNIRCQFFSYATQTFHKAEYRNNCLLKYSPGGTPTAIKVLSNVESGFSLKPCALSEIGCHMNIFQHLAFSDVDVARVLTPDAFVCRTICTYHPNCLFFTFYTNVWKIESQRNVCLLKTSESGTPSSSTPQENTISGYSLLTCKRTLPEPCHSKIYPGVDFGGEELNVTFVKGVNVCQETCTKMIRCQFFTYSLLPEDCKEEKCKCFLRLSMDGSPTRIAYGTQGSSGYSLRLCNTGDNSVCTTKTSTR

The target in the experiment is human activated kallikrein enzyme (plasma kallikrein) (Homo sapiens (Human), UniProt P03952). The experiment in a line: Inhibition of human activated plasma kallikrein, fluorogenic peptide substrate assay, 500 pM enzyme format. It is filed as biochemical. The settings on record: 500 pM activated kallikrein enzyme, 300 uM Pro-Phe-Arg-7-amido-4-methylcoumarin substrate, 30 min preincubation, 10 min at RT; read-out: Primary Dose Response Assay: Average EC50. In a few lines:
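Buffer 20 mM Tris pH 7.5, EDTA, NaCl, PEG-400, Triton X-100; 300 uM Pro-Phe-Arg-AMC; enzyme–inhibitor preincubation 30 min RT. Format one: 500 pM kallikrein, 10 min RT reaction; format two: 5 pM kallikrein, 18 h RT reaction. Fluorescence read at 460 nm (380 nm excitation).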
On to `N#Cc1cc(C2CC2)cn2cc(Cc3nnc(C(=O)NCc4ncn5ccc(Cl)c(F)c45)o3)nc12` [Example I-158, N-((7-chloro-8-fluoroimidazo[1,5-a]pyridin-1-yl)methyl)-5-((8-cyano-6-cyclopropylimidazo[1,2-a]pyridin-2-yl)methyl)-1,3,4-oxadiazole-2-carboxamide], for which the EC50 was under 1 nM.

On to `CC(c1cn2cc(C3CC3)ccc2n1)n1cc(C(=O)NCc2ncn3ccc(Cl)cc23)nn1` (centres unmarked) [Example I-124, N-((7-chloroimidazo[1,5-a]pyridin-1-yl)methyl)-1-(1-(6-cyclopropylimidazo[1,2-a]pyridin-2-yl)ethyl)-1H-1,2,3-triazole-4-carboxamide], for which the EC50 is 1 to 10 nM.

Consider `O=C(O)c1cn(-c2cc(C3CC3)cn3cc(Cn4cc(C(=O)NCc5ncn6ccc(Cl)c(F)c56)nn4)nc23)cn1` [Example I-226, 1-(2-((4-((7-chloro-8-fluoroimidazo[1,5-a]pyridin-1-yl)methylcarbamoyl)-1H-1,2,3-triazol-1-yl)methyl)-6-cyclopropylimidazo[1,2-a]pyridin-8-yl)-1H-imidazole-4-carboxylic acid], for which the EC50 is under 1 nM.

Consider `O=C(NCc1ncn2ccc(Cl)cc12)c1cnn(Cc2cn3cccc(C4(C(=O)O)CC4)c3n2)c1` [Example I-116, 1-(2-((4-(((7-chloroimidazo[1,5-a]pyridin-1-yl)methyl)carbamoyl)-1H-pyrazol-1-yl)methyl)imidazo[1,2-a]pyridin-8-yl)cyclopropane-1-carboxylic acid], for which the EC50 was 1 to 10 nM.

Consider `Nc1ccc2c(CNC(=O)c3cnn(Cc4cn5cc(C6CC6)ccc5n4)c3)ncn2c1` [Example I-53, N-((6-aminoimidazo[1,5-a]pyridin-1-yl)methyl)-1-((6-cyclopropylimidazo[1,2-a]pyridin-2-yl)methyl)-1H-pyrazole-4-carboxamide], for which the concentration giving a half-maximal response (EC50) fell in the range of 100 to 2000 nM.

In the case of `CCOC(=O)C(C)(C)Cc1cc(C2CC2)cn2cc(Cn3cc(C(=O)NCc4ncn5ccc(Cl)c(F)c45)nn3)nc12` [Example I-205, ethyl 3-(2-((4-(((7-chloro-8-fluoroimidazo[1,5-a]pyridin-1-yl)methyl)carbamoyl)-1H-1,2,3-triazol-1-yl)methyl)-6-cyclopropylimidazo[1,2-a]pyridin-8-yl)-2,2-dimethylpropanoate], the EC50 was under 1 nM.

On to `Cc1ccc2nc(Cn3cc(C(=O)NCc4ncn5ccc(Br)cc45)cn3)cn2c1C` [Example I-26, N-((7-bromoimidazo[1,5-a]pyridin-1-yl)methyl)-1-((5,6-dimethylimidazo[1,2-a]pyridin-2-yl)methyl)-1H-pyrazole-4-carboxamide], for which the EC50 is 1 to 10 nM.

Regarding `O=C(NCc1ncn2ccc(Cl)cc12)c1cnn(Cc2cn3cc(C4CC4)cc(C(O)C4COC4)c3n2)c1` (centres unmarked) [Example I-141, N-((7-chloroimidazo[1,5-a]pyridin-1-yl)methyl)-1-((6-cyclopropyl-8-(hydroxy(oxetan-3-yl)methyl)imidazo[1,2-a]pyridin-2-yl)methyl)-1H-pyrazole-4-carboxamide], the EC50 is under 1 nM.

For `COC(=O)c1ccc(-n2c(Cn3cc(C(=O)NCc4ncn5ccc(Cl)c(F)c45)nn3)cc3cc(C4CC4)ccc32)cc1` [Example I-254, methyl 4-(2-((4-(((7-chloro-8-fluoroimidazo[1,5-a]pyridin-1-yl)methyl)carbamoyl)-1H-1,2,3-triazol-1-yl)methyl)-5-cyclopropyl-1H-indol-1-yl)benzoate], the EC50 fell in the range of 1 to 10 nM.

As for `O=C(O)c1ccc2nc(Cn3cc(C(=O)NCc4ncn5ccc(Cl)cc45)cn3)cn2c1` [Example I-96, 2-((4-(((7-chloroimidazo[1,5-a]pyridin-1-yl)methyl)carbamoyl)-1H-pyrazol-1-yl)methyl)imidazo[1,2-a]pyridine-6-carboxylic acid], the EC50 is over 2000 nM.

In the case of `CCc1ccn2cnc(CNC(=O)c3cnn(Cc4cn5cc(C6CC6)ccc5n4)c3)c2c1` [Example I-67, 1-((6-cyclopropylimidazo[1,2-a]pyridin-2-yl)methyl)-N-((7-ethylimidazo[1,5-a]pyridin-1-yl)methyl)-1H-pyrazole-4-carboxamide], the EC50 lay within 10 to 100 nM.

Consider `O=C(O)CCc1cc(C2CC2)cn2cc(Cn3cc(C(=O)NCc4ncn5ccc(Cl)c(F)c45)nn3)nc12` [Example I-163b, 3-(2-((4-(((7-chloro-8-fluoroimidazo[1,5-a]pyridin-1-yl)methyl)carbamoyl)-1H-1,2,3-triazol-1-yl)methyl)-6-cyclopropylimidazo[1,2-a]pyridin-8-yl)propanoic acid], for which the EC50 is under 1 nM.

Take `O=C(O)Cc1cc(C2CC2)cn2cc(Cn3cc(C(=O)NCc4ncn5ccc(Cl)cc45)cn3)nc12` [Example I-86, 2-(2-((4-(((7-chloroimidazo[1,5-a]pyridin-1-yl)methyl)carbamoyl)-1H-pyrazol-1-yl)methyl)-6-cyclopropylimidazo[1,2-a]pyridin-8-yl)acetic acid]: the concentration giving a half-maximal response (EC50) is under 1 nM.

As to `O=C(NCc1ncn2ccc(Cl)c(F)c12)c1cn(Cc2cn3cc(C4CC4)cc(C4COC4)c3n2)nn1` [Example I-169, N-((7-chloro-8-fluoroimidazo[1,5-a]pyridin-1-yl)methyl)-1-((6-cyclopropyl-8-(oxetan-3-yl)imidazo[1,2-a]pyridin-2-yl)methyl)-1H-1,2,3-triazole-4-carboxamide], the EC50 is under 1 nM.

For `CCOC(=O)C1CC1c1cc(C2CC2)cn2cc(Cn3cc(C(=O)NCc4ncn5ccc(Cl)cc45)cn3)nc12` (centres unmarked) [Example I-127, ethyl 2-(2-((4-(((7-chloroimidazo[1,5-a]pyridin-1-yl)methyl)carbamoyl)-1H-pyrazol-1-yl)methyl)-6-cyclopropylimidazo[1,2-a]pyridin-8-yl)cyclopropane-1-carboxylate], the EC50 is under 1 nM.

On to `O=C(NCc1ncn2ccc(Cl)cc12)c1cn(Cc2cn3cc(C4CC4)cc(CCc4nnn[nH]4)c3n2)nn1` [Example I-194, 1-((8-(2-(1H-tetrazol-5-yl)ethyl)-6-cyclopropylimidazo[1,2-a]pyridin-2-yl)methyl)-N-((7-chloroimidazo[1,5-a]pyridin-1-yl)methyl)-1H-1,2,3-triazole-4-carboxamide], for which the EC50 is under 1 nM.

For the compound `O=C(NCc1ncn2ccc(Cl)c(F)c12)c1cn(Cc2cc3cc(C4CC4)ccc3o2)nn1` [Example I-191, N-((7-chloro-8-fluoroimidazo[1,5-a]pyridin-1-yl)methyl)-1-((5-cyclopropylbenzofuran-2-yl)methyl)-1H-1,2,3-triazole-4-carboxamide], the EC50 is 1 to 10 nM.

On to `CC(Cc1cc(C2CC2)cn2cc(Cn3cc(C(=O)NCc4ncn5ccc(Cl)c(F)c45)nn3)nc12)C(=O)O` (centres unmarked) [Example I-245b, 3-(2-((4-(((7-chloro-8-fluoroimidazo[1,5-a]pyridin-1-yl)methyl)carbamoyl)-1H-1,2,3-triazol-1-yl)methyl)-6-cyclopropylimidazo[1,2-a]pyridin-8-yl)-2-methylpropanoic acid], for which the EC50 was under 1 nM.

In the case of `O=C(NCc1ncn2ccc(Cl)c(F)c12)c1cnn(Cc2cn3cc(C4CC4)cc(C4COC4)c3n2)c1` [Example I-215, N-((7-chloro-8-fluoroimidazo[1,5-a]pyridin-1-yl)methyl)-1-((6-cyclopropyl-8-(oxetan-3-yl)imidazo[1,2-a]pyridin-2-yl)methyl)-1H-pyrazole-4-carboxamide], the concentration for a half-maximal effect (EC50) is under 1 nM.

Turning to `Cc1cccc2nc(Cn3cc(C(=O)NCc4ncn5ccc(Cl)cc45)cn3)cn12` [Example I-9, N-((7-chloroimidazo[1,5-a]pyridin-1-yl)methyl)-1-((5-methylimidazo[1,2-a]pyridin-2-yl)methyl)-1H-pyrazole-4-carboxamide], the concentration for a half-maximal effect (EC50) fell in the range of 10 to 100 nM.

Turning to `O=C(NCc1ncn2ccc(Cl)cc12)c1cnn(Cc2cn3cc(C(F)(F)F)ccc3n2)c1` [Example I-18, N-((7-chloroimidazo[1,5-a]pyridin-1-yl)methyl)-1-((6-(trifluoromethyl)imidazo[1,2-a]pyridin-2-yl)methyl)-1H-pyrazole-4-carboxamide], the EC50 was 1 to 10 nM.

For `CCOC(=O)C1CC1c1nn(Cc2cn3cc(C4CC4)ccc3n2)cc1C(=O)NCc1ncn2ccc(Cl)cc12` (centres unmarked) [Example I-113, ethyl 2-(4-(((7-chloroimidazo[1,5-a]pyridin-1-yl)methyl)carbamoyl)-1-((6-cyclopropylimidazo[1,2-a]pyridin-2-yl)methyl)-1H-pyrazol-3-yl)cyclopropane-1-carboxylate], the EC50 was 1 to 10 nM.

As for `Cc1ncn(-c2cc(C3CC3)cn3cc(Cn4cc(C(=O)NCc5ncn6ccc(Cl)c(F)c56)nn4)nc23)n1` [Example I-258, N-((7-chloro-8-fluoroimidazo[1,5-a]pyridin-1-yl)methyl)-1-((6-cyclopropyl-8-(3-methyl-1H-1,2,4-triazol-1-yl)imidazo[1,2-a]pyridin-2-yl)methyl)-1H-1,2,3-triazole-4-carboxamide], the EC50 was under 1 nM.

As to `O=C(NCc1ncn2ccc(Cl)cc12)c1cnn(Cc2cn3cccc(C4(CO)CC4)c3n2)c1` [Example I-117, N-((7-chloroimidazo[1,5-a]pyridin-1-yl)methyl)-1-((8-(1-(hydroxymethyl)cyclopropyl)imidazo[1,2-a]pyridin-2-yl)methyl)-1H-pyrazole-4-carboxamide], the EC50 was under 1 nM.

As for `O=C(NCc1ncn2ccc(Cl)c(F)c12)c1cnn(Cc2cn3nc(C4CC4)ccc3n2)c1` [Example I-146, N-((7-chloro-8-fluoroimidazo[1,5-a]pyridin-1-yl)methyl)-1-((6-cyclopropylimidazo[1,2-b]pyridazin-2-yl)methyl)-1H-pyrazole-4-carboxamide], the EC50 is under 1 nM.

Turning to `O=C(NCc1ncn2ccc(Br)cc12)c1cnn(Cc2cn3c(F)c(C4CC4)ccc3n2)c1` [Example I-60, N-((7-bromoimidazo[1,5-a]pyridin-1-yl)methyl)-1-((6-cyclopropyl-5-fluoroimidazo[1,2-a]pyridin-2-yl)methyl)-1H-pyrazole-4-carboxamide], the EC50 was under 1 nM.
